Tested on: SYO-1 complex spheroid growth, percent test/control
Assay: Anticancer human tumor SYO-1 cell line growth inhibition [Asc];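 further: compound exposure lasted 7 days after spheroids grew 3 days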;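 on viability, T/C: 100% = DMSO vehicle control viability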
Conditions: for IC50: curve of first compound; for viability, T/C: stronger effect = lower value
Summary of the method: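 Concentration series start at each agent's clinical Cmax, or at 10 microM when none is established, and drop in half-log steps; agents are applied alone or together to complex spheroids built with HUVEC and hMSC.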

[1] = second compound 0.0316 µM, first compound 0.0316 µM
[2] = second compound 0.0316 µM, first compound 0.1 µM
[3] = second compound 0.0316 µM, first compound 0.316 µM
[4] = second compound 0.0316 µM, first compound 1 µM
[5] = second compound 0.1 µM, first compound 0.0316 µM
[6] = second compound 0.1 µM, first compound 0.1 µM
[7] = second compound 0.1 µM, first compound 0.316 µM
[8] = second compound 0.1 µM, first compound 1 µM
[9] = second compound 0.316 µM, first compound 0.0316 µM
[10] = second compound 0.316 µM, first compound 0.1 µM
[11] = second compound 0.316 µM, first compound 0.316 µM
[12] = second compound 0.316 µM, first compound 1 µM
[13] = second compound 1 µM, first compound 0.0316 µM
[14] = second compound 1 µM, first compound 0.1 µM
[15] = second compound 1 µM, first compound 0.316 µM
[16] = second compound 1 µM, first compound 1 µM
[17] = second compound 3.16 µM, first compound 0.0316 µM
[18] = second compound 3.16 µM, first compound 0.1 µM
[19] = second compound 3.16 µM, first compound 0.316 µM
[20] = second compound 3.16 µM, first compound 1 µM
[21] = second compound 10 µM, first compound 0.0316 µM
[22] = second compound 10 µM, first compound 0.1 µM
[23] = second compound 10 µM, first compound 0.316 µM
[24] = second compound 10 µM, first compound 1 µM

C=C(F)C(=O)N1CCN(c2nc(OCC3CCCN3C)nc3c2CCN(c2cccc4cccc(Cl)c24)C3)CC1CC#N (centres undefined) + Cc1c(S(C)(=O)=O)c(-c2cc(F)cc(N3CCN(c4ccc(NS(=O)(=O)c5ccc(NC(CCN6CCC(C(=O)OCCCP(=O)(O)O)CC6)CSc6ccccc6)c(S(=O)(=O)C(F)(F)F)c5)cc4)CC3)c2)c(-c2ccc(Cl)cc2)n1C(C)C
IC50 (second compound 0.0316 µM): 4950 nM
IC50 (second compound 0.1 µM): 3360 nM
IC50 (second compound 0.316 µM): 1740 nM
IC50 (second compound 1 µM): 1730 nM
IC50 (second compound 3.16 µM): 1670 nM
IC50 (second compound 10 µM): 1590 nM
viability, T/C [1]: 97.2%
viability, T/C [2]: 87.6%
viability, T/C [3]: 97.8%
viability, T/C [4]: 101%
viability, T/C (second compound 0.0316 µM, first compound 3.16 µM): 81.6%
viability, T/C (second compound 0.0316 µM, first compound 10 µM): 0.62%
viability, T/C [5]: 92.7%
viability, T/C [6]: 96.7%
viability, T/C [7]: 96.3%
viability, T/C [8]: 98.3%
viability, T/C (second compound 0.1 µM, first compound 3.16 µM): 52.8%
viability, T/C (second compound 0.1 µM, first compound 10 µM): 0.77%
viability, T/C [9]: 98.8%
viability, T/C [10]: 97%
viability, T/C [11]: 97.3%
viability, T/C [12]: 95.1%
viability, T/C (second compound 0.316 µM, first compound 3.16 µM): 1.32%
viability, T/C (second compound 0.316 µM, first compound 10 µM): 0.42%
viability, T/C [13]: 89.6%
viability, T/C [14]: 89.7%
viability, T/C [15]: 88.4%
viability, T/C [16]: 109%
viability, T/C (second compound 1 µM, first compound 3.16 µM): 0.8%
viability, T/C (second compound 1 µM, first compound 10 µM): 1.26%
viability, T/C [17]: 92.9%
viability, T/C [18]: 78.6%
viability, T/C [19]: 87.8%
viability, T/C [20]: 97.6%
viability, T/C (second compound 3.16 µM, first compound 3.16 µM): 0.94%
viability, T/C (second compound 3.16 µM, first compound 10 µM): 1.06%
viability, T/C [21]: 89.5%
viability, T/C [22]: 78.9%
viability, T/C [23]: 71.5%
viability, T/C [24]: 91.6%
viability, T/C (second compound 10 µM, first compound 3.16 µM): 0.9%
viability, T/C (second compound 10 µM, first compound 10 µM): 0.74%

CNC(C)C(=O)NC1CN(S(=O)(=O)c2cccc(S(=O)(=O)N3CCC4CCC(C(=O)NC(c5ccccc5)c5ccccc5)N4C(=O)C(NC(=O)C(C)NC)C3)c2)CCC2CCC(C(=O)NC(c3ccccc3)c3ccccc3)N2C1=O (centres undefined) + Cc1c(S(C)(=O)=O)c(-c2cc(F)cc(N3CCN(c4ccc(NS(=O)(=O)c5ccc(NC(CCN6CCC(C(=O)OCCCP(=O)(O)O)CC6)CSc6ccccc6)c(S(=O)(=O)C(F)(F)F)c5)cc4)CC3)c2)c(-c2ccc(Cl)cc2)n1C(C)C
IC50 (second compound 0.0316 µM): > 1000 nM
IC50 (second compound 0.1 µM): > 1000 nM
IC50 (second compound 0.316 µM): > 1000 nM
IC50 (second compound 1 µM): > 1000 nM
IC50 (second compound 3.16 µM): > 1000 nM
IC50 (second compound 10 µM): > 1000 nM
viability, T/C (second compound 0.0316 µM, first compound 0.00316 µM): 94.8%
viability, T/C (second compound 0.0316 µM, first compound 0.01 µM): 97.2%
viability, T/C [1]: 95.6%
viability, T/C [2]: 93.3%
viability, T/C [3]: 98.4%
viability, T/C [4]: 103%
viability, T/C (second compound 0.1 µM, first compound 0.00316 µM): 101%
viability, T/C (second compound 0.1 µM, first compound 0.01 µM): 99.9%
viability, T/C [5]: 98.4%
viability, T/C [6]: 97.9%
viability, T/C [7]: 95.7%
viability, T/C [8]: 92.8%
viability, T/C (second compound 0.316 µM, first compound 0.00316 µM): 96.4%
viability, T/C (second compound 0.316 µM, first compound 0.01 µM): 91.8%
viability, T/C [9]: 89%
viability, T/C [10]: 99.3%
viability, T/C [11]: 96.6%
viability, T/C [12]: 85.8%
viability, T/C (second compound 1 µM, first compound 0.00316 µM): 96.6%
viability, T/C (second compound 1 µM, first compound 0.01 µM): 90.8%
viability, T/C [13]: 89.8%
viability, T/C [14]: 90.5%
viability, T/C [15]: 88.9%
viability, T/C [16]: 101%
viability, T/C (second compound 3.16 µM, first compound 0.00316 µM): 98.5%
viability, T/C (second compound 3.16 µM, first compound 0.01 µM): 88.1%
viability, T/C [17]: 84.5%
viability, T/C [18]: 85.5%
viability, T/C [19]: 89.9%
viability, T/C [20]: 82%
viability, T/C (second compound 10 µM, first compound 0.00316 µM): 94.7%
viability, T/C (second compound 10 µM, first compound 0.01 µM): 83.9%
viability, T/C [21]: 74.6%
viability, T/C [22]: 72.5%
viability, T/C [23]: 85.7%
viability, T/C [24]: 71.1%

Reference: PubChem BioAssay AID1963432 (Molecular Pharmacology Branch, DTP, NCI, 2024)
